{"source": "patent US20190106697A1", "about": "“Inhibition Of Lactate Transporters For Use In The Treatment Of Inflammatory Diseases” (Queen Mary University of London, priority 2014, published 2019)", "type_in_all_cases": "cell-based, mouse", "key": {"activated CD4+ T-cells [1]": {"test_system": "activated CD4+ T-cells", "test": "In vitro chemokinesis of activated CD4+ T-cells towards CXCL10 (transwell)", "conditions": "10 mM lactic acid or sodium lactate, CXCL10 300 ng/ml", "text": "(§1) T-cell isolation, in-vitro activation and subset enrichment: T-cells were isolated from C57BL/6 murine lymph nodes and activated for 3 to 5 days with plate bound anti-CD3 and anti-CD28 antibodies (BioLegend), and IL-2 (PeproTech). CD4+ and CD8+ subsets were enriched with commercially available CD4+ and CD8+ T-cell isolation kits according to the manufacturer's instructions (Easysep, Invitrogen) either prior or post activation according to experimental settings. Chemokinesis assays: Chemokinesis assays were performed in 5 μm transwell inlays. In some experiments, T-cells were pre-treated overnight with a number of drugs purchased from Calbiochem: Rapamycin (200 nM), 2-DG (1 mM), Metformin (2 mM). […] 3×10^6 lymphocytes were seeded in the upper transwell chamber; chemokines were added to the lower chamber: CXCL10 (300 ng/ml), CCL5 (50 ng/ml), CCL19/21 (200 ng/ml of each chemokine). Migrated T-cells were counted with a hemocytometer 2, 4 and 6 hours after seeding and % of migrated cells was calculated."}, "activated CD4+ T-cells [2]": {"test_system": "activated CD4+ T-cells", "test": "CCL5-induced chemokinesis of activated CD4+ T-cells", "conditions": "10 mM; CCL5 50 ng/ml", "text": "as §1"}, "activated CD8+ T-cells [3]": {"test_system": "activated CD8+ T-cells", "test": "Glucose uptake and flux with 2-NBDG / 6-NBDG in CD8+ T-cells", "conditions": "2-NBDG and 6-NBDG probes", "description": "Measurement of lactate, glycolysis, glucose uptake/flux and cell death: Lactate concentration was measured in the synovial fluid or peritoneal lavage using the Lactate assay Kit (Biovision), according to the manufacturer's instructions. Glycolytic metabolism was measured with a Seahorse XF24 Extracellular Flux Analyzer. Briefly, T-cells were grown in high glucose RPMI-1640 supplemented with 10% FCS. […] T-cell viability upon lactate or metabolic drug treatment was assessed by trypan blue exclusion assay."}, "CD8+ cytotoxic T-cells": {"test_system": "CD8+ cytotoxic T-cells", "test": "CTL cytotoxicity assay with allogeneic endothelial cells", "conditions": "10 mM", "description": "CTL differentiation and activity assay: Isolated CD8+ T-cells (balb/c) were incubated with CD3-depleted and mytomycin-C-eradicated allogeneic splenocytes (C57BL/6). […] Dead cells were counted using trypan blue exclusion assay 2, 4, 6 and 18 hours after the start of the assay."}, "activated CD8+ T-cells [4]": {"test_system": "activated CD8+ T-cells", "test": "In vitro chemokinesis of activated CD8+ T-cells towards CXCL10 (transwell)", "text": "as §1"}}, "data": [{"smiles": "CC(O)C(=O)O", "note": "(stereo not shown) [lactic-acid]", "values": [{"measurement": "CXCL10-induced chemokinesis of activated CD4+ T-cells", "setting": "activated CD4+ T-cells [1]", "value": "not vice versa"}, {"measurement": "CXCL10-induced chemokinesis of activated CD4+ T-cells", "setting": "activated CD4+ T-cells [1]; listed as lactic acid", "value": "not affected"}, {"measurement": "CCL5-induced migration of CD4+ T-cells", "setting": "activated CD4+ T-cells [2]", "value": "not"}, {"measurement": "glucose uptake and flux through glycolysis in CD8+ T-cells", "setting": "activated CD8+ T-cells [3]", "value": "vice versa"}, {"measurement": "cytolytic activity of CTLs", "setting": "CD8+ cytotoxic T-cells", "value": "inhibited"}, {"measurement": "CXCL10-induced chemokinesis of activated CD8+ T-cells", "setting": "activated CD8+ T-cells [4]; 10 mM lactic acid or sodium lactate, CXCL10 300 ng/ml", "value": "inhibited"}, {"measurement": "chemokinesis of CD8+ T-cells, culture media buffered to neutral pH", "setting": "activated CD8+ T-cells [4]; lactic-acid with bicarbonate or HEPES to reach a neutral pH", "value": "still impaired"}]}]}
